Assay results published in PMC5218480 (PLoS ONE, 2017).

Test system: MV-4-11 cells
Assay: Gene expression microarray analysis (Affymetrix PrimeView) and GSEA
Type: cell-based, human
Parameters: RFU PODN (11730768_x_at) / Fold change /veh PODN (11730768_x_at) / RFU LINC00158 (11744669_a_at) / Fold change /veh LINC00158 (11744669_a_at) / RFU DUSP10 (11751237_a_at) / Fold change /veh DUSP10 (11751237_a_at) / RFU ID3 (11757404_x_at) / Fold change /veh ID3 (11757404_x_at) / RFU PLEKHG5 (11737974_s_at) / Fold change /veh PLEKHG5 (11737974_s_at) / RFU LRRC4B (11730491_at) / Fold change /veh LRRC4B (11730491_at) / RFU GIMAP4 (11747438_a_at) / Fold change /veh GIMAP4 (11747438_a_at) / RFU KRT8 (11758183_x_at) / Fold change /veh KRT8 (11758183_x_at) / RFU CNN1 (11734310_a_at) / Fold change /veh CNN1 (11734310_a_at) / RFU VPS37D (11726825_at) / Fold change /veh VPS37D (11726825_at) / RFU C10orf10 (11716522_x_at) / Fold change /veh C10orf10 (11716522_x_at) / RFU KIR2DL2 /// KIR2DL4 /// KIR2DL5A /// KIR2DL5B /// KIR2DS1 /// KIR2DS2 /// KIR2DS3 /// KIR2DS4 /// KIR3DL3 /// KIR3DL3 /// KIR3DS1 (11738374_at) / Fold change /veh KIR2DL2 /// KIR2DL4 /// KIR2DL5A /// KIR2DL5B /// KIR2DS1 /// KIR2DS2 /// KIR2DS3 /// KIR2DS4 /// KIR3DL3 /// KIR3DL3 /// KIR3DS1 (11738374_at) / RFU C1QL1 (11718748_at) / Fold change /veh C1QL1 (11718748_at) / RFU TMPRSS4 (11747572_a_at) / Fold change /veh TMPRSS4 (11747572_a_at) / RFU HAMP (11756126_x_at) / Fold change /veh HAMP (11756126_x_at) / RFU RNFT2 (11725882_a_at) / Fold change /veh RNFT2 (11725882_a_at) / RFU NR4A2 (11747474_a_at) / Fold change /veh NR4A2 (11747474_a_at) / RFU ABCC12 (11746883_a_at) / Fold change /veh ABCC12 (11746883_a_at) / RFU TMEM136 (11760407_x_at) / Fold change /veh TMEM136 (11760407_x_at) / RFU CLDN22 /// WWC2 (11732394_at) / Fold change /veh CLDN22 /// WWC2 (11732394_at) / RFU HLA-DPB1 (11760878_x_at) / Fold change /veh HLA-DPB1 (11760878_x_at) / RFU SPINT1 (11716480_a_at) / Fold change /veh SPINT1 (11716480_a_at) / RFU GAP43 (11754022_s_at) / Fold change /veh GAP43 (11754022_s_at) / RFU A4GNT (11735810_at) / Fold change /veh A4GNT (11735810_at) / RFU PRB3 (11715151_x_at) / Fold change /veh PRB3 (11715151_x_at) / RFU TUBB4B (11761932_at) / Fold change /veh TUBB4B (11761932_at) / RFU CAPN14 (11732068_a_at) / Fold change /veh CAPN14 (11732068_a_at) / RFU TMCC2 (11721928_a_at) / Fold change /veh TMCC2 (11721928_a_at) / RFU IRGQ (11745062_a_at) / Fold change /veh IRGQ (11745062_a_at) / RFU FAM174B (11720279_a_at) / Fold change /veh FAM174B (11720279_a_at) / RFU TMPRSS4 (11748680_a_at) / Fold change /veh TMPRSS4 (11748680_a_at) / RFU FAM212B (11763350_a_at) / Fold change /veh FAM212B (11763350_a_at) / RFU PLEKHG5 (11743358_a_at) / Fold change /veh PLEKHG5 (11743358_a_at) / RFU ZSCAN30 (11745921_a_at) / Fold change /veh ZSCAN30 (11745921_a_at) / RFU CMKLR1 (11741424_a_at) / Fold change /veh CMKLR1 (11741424_a_at) / RFU LOC101060620 /// MAPK8IP1 (11723275_at) / Fold change /veh LOC101060620 /// MAPK8IP1 (11723275_at) / RFU SPTSSB (11747773_x_at) / Fold change /veh SPTSSB (11747773_x_at) / RFU PRSS12 (11739890_at) / Fold change /veh PRSS12 (11739890_at) / RFU BIN1 (11741810_x_at) / Fold change /veh BIN1 (11741810_x_at) / RFU WNT11 (11732464_a_at) / Fold change /veh WNT11 (11732464_a_at) / RFU C10orf10 (11716521_a_at) / Fold change /veh C10orf10 (11716521_a_at) / RFU C5orf56 (11738089_at) / Fold change /veh C5orf56 (11738089_at) / RFU CYB561 (11721691_x_at) / Fold change /veh CYB561 (11721691_x_at) / RFU ANKRD19P (11752326_a_at) / Fold change /veh ANKRD19P (11752326_a_at) / RFU OR2T12 /// OR2T33 /// OR2T8 (11738714_s_at) / Fold change /veh OR2T12 /// OR2T33 /// OR2T8 (11738714_s_at) / RFU VCAN (11748164_a_at) / Fold change /veh VCAN (11748164_a_at) / RFU JSRP1 (11732532_at) / Fold change /veh JSRP1 (11732532_at) / RFU KRTAP10-11 (11738290_x_at) / Fold change /veh KRTAP10-11 (11738290_x_at) / RFU MYO3A (11730013_a_at) / Fold change /veh MYO3A (11730013_a_at) / RFU EBF3 (11725865_a_at) / Fold change /veh EBF3 (11725865_a_at) / RFU CAMK2N1 (11719241_x_at) / Fold change /veh CAMK2N1 (11719241_x_at) / RFU C5orf56 (11738088_a_at) / Fold change /veh C5orf56 (11738088_a_at) / RFU OLFML3 (11715873_a_at) / Fold change /veh OLFML3 (11715873_a_at) / RFU LOC100653217 /// NTM (11731650_a_at) / Fold change /veh LOC100653217 /// NTM (11731650_a_at) / RFU MAPK11 (11762145_a_at) / Fold change /veh MAPK11 (11762145_a_at) / RFU FIZ1 (11724087_x_at) / Fold change /veh FIZ1 (11724087_x_at) / RFU OASL (11726364_x_at) / Fold change /veh OASL (11726364_x_at) / RFU SOX15 (11748057_x_at) / Fold change /veh SOX15 (11748057_x_at) / RFU CD79A (11719716_a_at) / Fold change /veh CD79A (11719716_a_at) / RFU HIST1H1D (11736915_at) / Fold change /veh HIST1H1D (11736915_at) / RFU CASKIN2 (11723855_a_at) / Fold change /veh CASKIN2 (11723855_a_at) / RFU LOC730098 (11760151_x_at) / Fold change /veh LOC730098 (11760151_x_at) / RFU OR4N2 (11742367_at) / Fold change /veh OR4N2 (11742367_at) / RFU PRRT2 (11749266_a_at) / Fold change /veh PRRT2 (11749266_a_at) / RFU SNX32 (11753110_a_at) / Fold change /veh SNX32 (11753110_a_at) / RFU CDHR5 (11726645_a_at) / Fold change /veh CDHR5 (11726645_a_at) / RFU RCAN1 (11760418_a_at) / Fold change /veh RCAN1 (11760418_a_at) / RFU FAM167A (11723789_a_at) / Fold change /veh FAM167A (11723789_a_at) / RFU FAM26E (11764081_at) / Fold change /veh FAM26E (11764081_at) / RFU ISYNA1 (11749810_s_at) / Fold change /veh ISYNA1 (11749810_s_at) / RFU ACY1 (11761880_at) / Fold change /veh ACY1 (11761880_at) / RFU 11764098_at / Fold change /veh 11764098_at / RFU SAMD14 (11745864_x_at) / Fold change /veh SAMD14 (11745864_x_at) / RFU NPB (11741838_a_at) / Fold change /veh NPB (11741838_a_at) / RFU TMPRSS6 (11731388_a_at) / Fold change /veh TMPRSS6 (11731388_a_at) / RFU KRTAP10-2 (11738614_at) / Fold change /veh KRTAP10-2 (11738614_at) / RFU ARHGAP8 /// PRR5-ARHGAP8 (11727945_x_at) / Fold change /veh ARHGAP8 /// PRR5-ARHGAP8 (11727945_x_at) / RFU KRTAP5-7 /// NADSYN1 (11734609_at) / Fold change /veh KRTAP5-7 /// NADSYN1 (11734609_at) / RFU RASL12 (11751679_a_at) / Fold change /veh RASL12 (11751679_a_at) / RFU CDKN2B (11736163_a_at) / Fold change /veh CDKN2B (11736163_a_at) / RFU PRF1 (11729649_at) / Fold change /veh PRF1 (11729649_at) / RFU, ZNF638 /// ZNF638-IT1 / Fold change vs veh, ZNF638 /// ZNF638-IT1 / RFU, PANK3 / Fold change vs veh, PANK3 / RFU, SH3YL1 / Fold change vs veh, SH3YL1 / RFU, ZEB2 / Fold change vs veh, ZEB2 / RFU, NRIP1 / Fold change vs veh, NRIP1 / RFU, PTTG1IP / Fold change vs veh, PTTG1IP / RFU, CAPN2 / Fold change vs veh, CAPN2 / RFU, MED14 / Fold change vs veh, MED14 / RFU, SNORA58 / Fold change vs veh, SNORA58 / RFU, C1orf63 / Fold change vs veh, C1orf63 / RFU, LRRFIP1 / Fold change vs veh, LRRFIP1 / RFU, NDUFAF7 / Fold change vs veh, NDUFAF7 / RFU, SLC12A2 / Fold change vs veh, SLC12A2 / RFU, IBTK / Fold change vs veh, IBTK / RFU, ESF1 / Fold change vs veh, ESF1 / Fold change vs veh, TMEM50B / RFU, TAOK1 / Fold change vs veh, TAOK1 / RFU, ACBD3 / Fold change vs veh, ACBD3 / RFU, TMA16 / Fold change vs veh, TMA16 / RFU, RWDD3 / Fold change vs veh, RWDD3 / RFU, BCAT1 / Fold change vs veh, BCAT1 / RFU, EDEM3 / Fold change vs veh, EDEM3 / RFU, TMEM33 / Fold change vs veh, TMEM33 / RFU, WDR75 / Fold change vs veh, WDR75 / RFU, AHCTF1 / Fold change vs veh, AHCTF1 / RFU, TFRC / Fold change vs veh, TFRC / RFU, ZDHHC17 / Fold change vs veh, ZDHHC17 / RFU, NOM1 / Fold change vs veh, NOM1 / RFU, ARL8B / Fold change vs veh, ARL8B / RFU, ZBTB11 / Fold change vs veh, ZBTB11 / RFU, TAMM41 / Fold change vs veh, TAMM41 / RFU, KIAA1704 /// LOC100996395 / Fold change vs veh, KIAA1704 /// LOC100996395 / RFU, ING1 / Fold change vs veh, ING1 / RFU, TRMT61B / Fold change vs veh, TRMT61B / RFU, FUBP3 / Fold change vs veh, FUBP3 / RFU, TP53 / Fold change vs veh, TP53 / RFU, TNKS2 / Fold change vs veh, TNKS2 / RFU, ZFP14 / Fold change vs veh, ZFP14 / RFU, ACTR2 / Fold change vs veh, ACTR2 / RFU, PPP3R1 / Fold change vs veh, PPP3R1 / RFU, PIK3R1 / Fold change vs veh, PIK3R1 / RFU, HNRNPA1 / Fold change vs veh, HNRNPA1 / RFU, RNF170 / Fold change vs veh, RNF170 / RFU, ZNF28 / Fold change vs veh, ZNF28 / RFU, RNGTT / Fold change vs veh, RNGTT / RFU, OGT / Fold change vs veh, OGT / RFU, BRD1 / Fold change vs veh, BRD1 / RFU, MARS / Fold change vs veh, MARS / RFU, ZNF655 / Fold change vs veh, ZNF655 / RFU, FAHD1 / Fold change vs veh, FAHD1 / RFU, BDP1 / Fold change vs veh, BDP1 / RFU, LRRCC1 / Fold change vs veh, LRRCC1 / RFU, ARID1A / Fold change vs veh, ARID1A / RFU, ZNF146 / Fold change vs veh, ZNF146 / RFU, ZNF330 / Fold change vs veh, ZNF330 / RFU, GPN3 / Fold change vs veh, GPN3 / RFU, C9orf123 / Fold change vs veh, C9orf123 / RFU, N4BP2L2 / Fold change vs veh, N4BP2L2 / RFU, ARFIP1 / Fold change vs veh, ARFIP1 / RFU, FAM179B / Fold change vs veh, FAM179B / RFU, BCL10 / Fold change vs veh, BCL10 / RFU, UHRF1BP1L / Fold change vs veh, UHRF1BP1L / RFU, BET1 / Fold change vs veh, BET1 / RFU, CNOT2 / Fold change vs veh, CNOT2 / RFU, ZNF268 / Fold change vs veh, ZNF268 / Fold change vs veh, ZNF507 / RFU, DGCR2 / Fold change vs veh, DGCR2 / RFU, WDSUB1 / Fold change vs veh, WDSUB1 / Fold change vs veh, HSP90B1 /// MIR3652 / RFU, ADSS / Fold change vs veh, ADSS / RFU, GK / Fold change vs veh, GK / RFU, ZNF148 / Fold change vs veh, ZNF148 / RFU, TAF9 / Fold change vs veh, TAF9 / RFU, SLC1A5 / Fold change vs veh, SLC1A5 / RFU, SLMO2 / Fold change vs veh, SLMO2 / RFU, ABCC4 / Fold change vs veh, ABCC4 / RFU, LOC101060439 /// RAP1B / Fold change vs veh, LOC101060439 /// RAP1B / RFU, RFX7 / Fold change vs veh, RFX7 / RFU, GTPBP10 / Fold change vs veh, GTPBP10 / RFU, CNEP1R1 / Fold change vs veh, CNEP1R1 / RFU, BIVM-ERCC5 /// ERCC5 / Fold change vs veh, BIVM-ERCC5 /// ERCC5 / RFU, ILF3 / Fold change vs veh, ILF3 / RFU 11762660_at / Fold change /veh 11762660_at / RFU VCAN (11757783_s_at) / Fold change /veh VCAN (11757783_s_at) / RFU DDX43 (11728927_at) / Fold change /veh DDX43 (11728927_at) / RFU KRT8 (11758188_x_at) / Fold change /veh KRT8 (11758188_x_at) / RFU NKD1 (11759106_at) / Fold change /veh NKD1 (11759106_at) / RFU SRD5A1 (11742802_a_at) / Fold change /veh SRD5A1 (11742802_a_at) / RFU TPSAB1 /// TPSB2 (11721975_s_at) / Fold change /veh TPSAB1 /// TPSB2 (11721975_s_at) / RFU GSTM3 (11746129_a_at) / Fold change /veh GSTM3 (11746129_a_at) / RFU IL23R (11737362_x_at) / Fold change /veh IL23R (11737362_x_at) / RFU TMEM51 (11727254_a_at) / Fold change /veh TMEM51 (11727254_a_at) / RFU PIWIL2 (11732686_x_at) / Fold change /veh PIWIL2 (11732686_x_at) / RFU ORM1 (11744905_x_at) / Fold change /veh ORM1 (11744905_x_at) / RFU CCDC152 (11743942_at) / Fold change /veh CCDC152 (11743942_at) / RFU ECM1 (11717891_a_at) / Fold change /veh ECM1 (11717891_a_at) / RFU IL23R (11748794_a_at) / Fold change /veh IL23R (11748794_a_at) / RFU TNFAIP8L3 (11732012_x_at) / Fold change /veh TNFAIP8L3 (11732012_x_at) / RFU MBOAT4 (11741988_at) / Fold change /veh MBOAT4 (11741988_at) / RFU 11764193_at / Fold change /veh 11764193_at / RFU TMEM53 (11763286_at) / Fold change /veh TMEM53 (11763286_at) / RFU MAGEB2 (11727129_at) / Fold change /veh MAGEB2 (11727129_at) / RFU TMEM200A (11744735_a_at) / Fold change /veh TMEM200A (11744735_a_at) / RFU CCDC152 (11751479_a_at) / Fold change /veh CCDC152 (11751479_a_at) / RFU FAM211A (11726209_a_at) / Fold change /veh FAM211A (11726209_a_at) / RFU RGS16 (11746705_a_at) / Fold change /veh RGS16 (11746705_a_at) / RFU VCAN (11755009_s_at) / Fold change /veh VCAN (11755009_s_at) / RFU RHOB (11743442_s_at) / Fold change /veh RHOB (11743442_s_at) / RFU RGS16 (11720943_a_at) / Fold change /veh RGS16 (11720943_a_at) / RFU RGS16 (11720944_at) / Fold change /veh RGS16 (11720944_at) / RFU, VPS4B / Fold change vs veh, VPS4B / RFU, CREB1 / Fold change vs veh, CREB1 / RFU, DNAJC13 / Fold change vs veh, DNAJC13 / RFU, GNAQ / Fold change vs veh, GNAQ / RFU, CDK5R1 / Fold change vs veh, CDK5R1 / RFU, ZRANB3 / Fold change vs veh, ZRANB3 / RFU, CUL4A / Fold change vs veh, CUL4A / RFU, CCNY / Fold change vs veh, CCNY / RFU, UFL1 / Fold change vs veh, UFL1 / RFU, COG3 / Fold change vs veh, COG3 / RFU, DIAPH2 / Fold change vs veh, DIAPH2 / RFU, SKA2 / Fold change vs veh, SKA2 / RFU, AFF3 / Fold change vs veh, AFF3 / RFU, LMF1 / Fold change vs veh, LMF1 / RFU, IPO11 / Fold change vs veh, IPO11 / RFU, DFFB / Fold change vs veh, DFFB / RFU, FOXP1 / Fold change vs veh, FOXP1 / RFU, CARD8 / Fold change vs veh, CARD8 / RFU, STRN3 / Fold change vs veh, STRN3 / RFU, ADK / Fold change vs veh, ADK / RFU, RASSF2 / Fold change vs veh, RASSF2 / RFU, WIPF1 / Fold change vs veh, WIPF1 / RFU, LARP1B / Fold change vs veh, LARP1B / RFU, RASA1 / Fold change vs veh, RASA1 / RFU, RB1 / Fold change vs veh, RB1 / RFU, PPFIA1 / Fold change vs veh, PPFIA1 / RFU, MAT2A / Fold change vs veh, MAT2A / RFU, CCT5 / Fold change vs veh, CCT5 / RFU, WDR92 / Fold change vs veh, WDR92 / RFU, CUX1 / Fold change vs veh, CUX1 / RFU, TTC7A / Fold change vs veh, TTC7A / RFU, TMEM135 / Fold change vs veh, TMEM135 / RFU, DEPTOR / Fold change vs veh, DEPTOR / RFU, CPM / Fold change vs veh, CPM / RFU, DNAJB6 / Fold change vs veh, DNAJB6 / RFU, CACNA2D3 / Fold change vs veh, CACNA2D3 / RFU, DTX4 / Fold change vs veh, DTX4 / RFU, TFCP2 / Fold change vs veh, TFCP2 / RFU, GMCL1 /// GMCL1P1 / Fold change vs veh, GMCL1 /// GMCL1P1 / RFU, AEBP2 / Fold change vs veh, AEBP2 / RFU, SNHG1 /// SNORD22 /// SNORD25 /// SNORD26 /// SNORD27 /// SNORD28 /// SNORD29 /// SNORD31 / Fold change vs veh, SNHG1 /// SNORD22 /// SNORD25 /// SNORD26 /// SNORD27 /// SNORD28 /// SNORD29 /// SNORD31 / Fold change (Aza/veh), C12orf56 (ProbeSet 11735607_a_at) / Fold change (ACY-1035/veh), C12orf56 (ProbeSet 11735607_a_at) / Fold change (Aza/veh), FGFR1OP (ProbeSet 11751329_s_at) / Fold change (ACY-1035/veh), FGFR1OP (ProbeSet 11751329_s_at) / Fold change (Aza/veh), VPS36 (ProbeSet 11739960_a_at) / Fold change (ACY-1035/veh), VPS36 (ProbeSet 11739960_a_at) / RFU SYPL1 (11715823_x_at) / Fold change /veh SYPL1 (11715823_x_at) / RFU IGFBP7 (11715501_s_at) / Fold change /veh IGFBP7 (11715501_s_at) / RFU REEP3 (11722064_at) / Fold change /veh REEP3 (11722064_at) / RFU IGLL1 (11728026_x_at) / Fold change /veh IGLL1 (11728026_x_at): dose or concentration left out as unconfirmed
Settings: MV-4-11 cells, 48 hours

Nc1ccc(-c2cccs2)cc1NC(=O)c1ccc2c(c1)cc(C1CC1)n2CCN1CCOCC1 [ACY-1035]
RFU TMPRSS6 (11731388_a_at): 73.78 RFU
